Results on 16 molecules are retold here after ChEMBL document CHEMBL5365518, “Synthesis and Validation of the First Cell-Impermeable Hsp90α-Selective Inhibitors” (ACS Med Chem Lett, 2023).

Active and inactive are the calls of the source. The rule behind the calls is not given here. Some results are limits rather than exact numbers.

For data set [1], the target named is Heat shock protein HSP 90-alpha (Homo sapiens, UniProt P07900). Description: Binding affinity HSP90alpha (unknown origin) incubated for 24 hrs by fluorescence polarization assay.
In data set [2] the target is Heat shock protein HSP 90-beta (Homo sapiens, UniProt P08238). Description: Binding affinity HSP90beta (unknown origin) incubated for 24 hrs by fluorescence polarization assay. A general note: Fluorescence polarisation rises when a labelled molecule tumbles more slowly, as on binding a larger partner.
Heat shock protein HSP 90-beta, sequence (P08238 whole entry): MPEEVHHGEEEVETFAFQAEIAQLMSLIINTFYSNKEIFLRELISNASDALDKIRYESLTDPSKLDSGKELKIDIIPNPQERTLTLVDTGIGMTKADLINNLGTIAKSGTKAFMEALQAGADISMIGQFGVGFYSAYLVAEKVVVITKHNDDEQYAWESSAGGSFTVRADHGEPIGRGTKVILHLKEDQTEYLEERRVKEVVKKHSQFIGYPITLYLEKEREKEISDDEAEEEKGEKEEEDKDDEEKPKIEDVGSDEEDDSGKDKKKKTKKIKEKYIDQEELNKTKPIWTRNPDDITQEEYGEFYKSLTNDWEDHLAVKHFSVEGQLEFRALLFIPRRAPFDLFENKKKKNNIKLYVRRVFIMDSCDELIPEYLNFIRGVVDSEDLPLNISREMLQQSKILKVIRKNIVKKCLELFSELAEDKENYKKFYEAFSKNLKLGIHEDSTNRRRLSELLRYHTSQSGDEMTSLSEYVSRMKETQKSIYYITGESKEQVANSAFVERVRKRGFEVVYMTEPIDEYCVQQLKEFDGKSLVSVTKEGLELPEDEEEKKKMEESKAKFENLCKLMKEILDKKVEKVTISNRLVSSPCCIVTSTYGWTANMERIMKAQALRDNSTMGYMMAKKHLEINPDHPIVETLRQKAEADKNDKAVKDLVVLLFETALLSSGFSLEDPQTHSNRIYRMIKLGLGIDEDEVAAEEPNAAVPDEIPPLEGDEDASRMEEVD
Data set [3] is described as follows: Antiproliferative activity against human MCF-10A cells assessed as inhibition of cell growth incubated for 72 hrs by MTS assay. The class given is toxicity, cell-based. For orientation: Formazan colour is commonly taken as a measure of viable cells.
The target of another data set is Endoplasmin (Homo sapiens, UniProt P14625). Description: Binding affinity to Grp94 (unknown origin) incubated for 24 hrs by fluorescence polarization assay.
Endoplasmin, sequence (P14625 whole entry): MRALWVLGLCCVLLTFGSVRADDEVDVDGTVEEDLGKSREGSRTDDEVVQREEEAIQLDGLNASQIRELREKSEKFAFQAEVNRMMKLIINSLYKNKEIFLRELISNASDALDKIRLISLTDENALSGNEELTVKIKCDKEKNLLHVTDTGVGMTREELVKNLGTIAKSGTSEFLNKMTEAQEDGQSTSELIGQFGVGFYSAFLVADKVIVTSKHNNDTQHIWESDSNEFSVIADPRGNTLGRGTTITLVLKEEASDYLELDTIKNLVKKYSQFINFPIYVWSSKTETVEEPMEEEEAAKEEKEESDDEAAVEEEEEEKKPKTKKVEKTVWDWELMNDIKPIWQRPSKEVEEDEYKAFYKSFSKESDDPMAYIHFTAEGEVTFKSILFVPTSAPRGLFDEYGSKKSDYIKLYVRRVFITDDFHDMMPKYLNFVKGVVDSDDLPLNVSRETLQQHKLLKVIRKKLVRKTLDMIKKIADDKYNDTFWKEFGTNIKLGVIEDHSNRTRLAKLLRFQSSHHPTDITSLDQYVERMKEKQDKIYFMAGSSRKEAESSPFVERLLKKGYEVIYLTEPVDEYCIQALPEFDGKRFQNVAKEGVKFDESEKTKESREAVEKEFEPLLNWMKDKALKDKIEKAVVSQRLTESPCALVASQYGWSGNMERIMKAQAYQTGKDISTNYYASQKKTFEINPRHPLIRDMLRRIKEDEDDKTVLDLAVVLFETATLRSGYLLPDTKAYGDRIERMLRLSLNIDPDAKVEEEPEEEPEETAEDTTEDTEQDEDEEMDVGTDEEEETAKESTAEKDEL
The test system of data set [4] is OVCAR-8. Description: Antiproliferative activity against human OVCAR-8 cells assessed as inhibition of cell growth incubated for 72 hrs by MTS assay. The class given is functional, cell-based. To be noted: OVCAR-8, 72 h.
In data set [5] the target is T1, Heat shock protein 75 kDa, mitochondrial (Homo sapiens, UniProt Q12931).
T1 sequence (Q12931 whole entry): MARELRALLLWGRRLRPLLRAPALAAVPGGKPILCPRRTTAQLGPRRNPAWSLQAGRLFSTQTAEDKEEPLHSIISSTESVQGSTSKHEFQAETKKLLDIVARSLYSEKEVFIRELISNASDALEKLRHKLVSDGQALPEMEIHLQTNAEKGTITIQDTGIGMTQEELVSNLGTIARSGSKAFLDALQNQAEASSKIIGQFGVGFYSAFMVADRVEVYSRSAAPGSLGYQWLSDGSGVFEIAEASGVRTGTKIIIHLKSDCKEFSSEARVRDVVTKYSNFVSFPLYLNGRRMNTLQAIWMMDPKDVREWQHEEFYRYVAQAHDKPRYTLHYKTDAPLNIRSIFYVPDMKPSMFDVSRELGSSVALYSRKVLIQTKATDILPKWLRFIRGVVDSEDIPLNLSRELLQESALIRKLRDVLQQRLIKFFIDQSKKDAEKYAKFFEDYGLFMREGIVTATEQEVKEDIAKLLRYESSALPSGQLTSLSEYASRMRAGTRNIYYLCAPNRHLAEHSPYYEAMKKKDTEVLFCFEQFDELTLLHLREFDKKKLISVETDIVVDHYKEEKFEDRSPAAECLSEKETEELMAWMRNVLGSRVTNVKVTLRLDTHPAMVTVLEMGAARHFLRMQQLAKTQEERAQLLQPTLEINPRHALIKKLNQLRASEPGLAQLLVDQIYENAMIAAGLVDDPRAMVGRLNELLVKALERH
Description: Binding affinity to Trap1 (unknown origin) incubated for 24 hrs by fluorescence polarization assay.

A short description of data set [6]: Effective permeability of compound in PBS buffer at pH 7.4 incubated for 5 hrs by PAMPA assay. The class given is ADME. The following applies: read-out: Peff.
For data set [7], the system named is OVCAR-8. Description: Induction of heat shock response in human OVCAR-8 cells assessed as increase in HSP90 level at 1 to 100 uM incubated for 24 hrs by Western blot analysis. The class given is functional, cell-based. To be noted: dose 1-100 µM. For orientation: Immunoblotting shows a protein as a band on a membrane.
The target in data set [8] is RAC-alpha serine/threonine-protein kinase (Homo sapiens) (UniProt P31749). Description: Inhibition of AKT phosphorylation in human OVCAR-8 cells assessed as reduction in pAKT level incubated for 24 hrs by Western blot analysis. The class given is cell-based. The following applies: dose 1-100 µM.
RAC-alpha serine/threonine-protein kinase (Homo sapiens), sequence (P31749 whole entry): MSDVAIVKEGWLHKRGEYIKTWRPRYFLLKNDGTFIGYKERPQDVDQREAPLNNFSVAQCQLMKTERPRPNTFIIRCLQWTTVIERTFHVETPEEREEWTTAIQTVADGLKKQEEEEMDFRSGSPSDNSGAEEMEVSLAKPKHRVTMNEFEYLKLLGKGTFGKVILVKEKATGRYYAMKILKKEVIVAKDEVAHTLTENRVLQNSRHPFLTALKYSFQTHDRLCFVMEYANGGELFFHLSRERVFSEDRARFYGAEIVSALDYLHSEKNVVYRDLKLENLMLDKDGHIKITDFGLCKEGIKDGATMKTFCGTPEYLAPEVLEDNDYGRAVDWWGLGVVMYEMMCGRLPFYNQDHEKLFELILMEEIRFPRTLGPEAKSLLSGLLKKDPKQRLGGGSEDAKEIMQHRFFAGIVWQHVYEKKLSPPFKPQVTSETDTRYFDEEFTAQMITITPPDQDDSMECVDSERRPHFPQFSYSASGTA
The test system of data set [9] is OVCAR-8. Description: Effect on TGFbetaR level in human OVCAR-8 cells at 1 to 100 uM incubated for 24 hrs by Western blot analysis. To be noted: dose 1-100 µM. The class given is functional, cell-based.
The target in the next data set is Heat shock protein HSP90 (Homo sapiens, UniProt P07900+P08238). Description: Disruption of HSP90-mediated hERG channel maturation transfected in HEK293 cells assessed as appearance of fully glycosylated form at 100 uM incubated for 24 hrs by Western blot analysis. To be noted: hek293, 24 h. The class given is toxicity, cell-based.
Data set [10] has as its system OVCAR-8. Description: Effect on TLR2 level in human OVCAR-8 cells at 1 to 100 uM incubated for 24 hrs by Western blot analysis. The class given is functional, cell-based. To be noted: dose 1-100 µM.
For data set [11], the target named is RAC-alpha serine/threonine-protein kinase (Homo sapiens) (UniProt P31749). Description: Induction of AKT degradation in human OVCAR-8 cells at 1 to 100 uM incubated for 24 hrs by Western blot analysis. The class given is cell-based. To be noted: dose 1-100 µM.
Data set [12] deals with OVCAR-8. Description: Effect on HER2 level in human OVCAR-8 cells at 1 to 100 uM incubated for 24 hrs by Western blot analysis. The data set is classed as functional, cell-based. To be noted: dose 1-100 µM.
A short description of data set [13]: Selectivity index, ratio of IC50 for binding affinity to HSP90beta (unknown origin) to IC50 for binding affinity to HSP90alpha (unknown origin).
For data set [14], the system named is OVCAR-8. Description: Induction of heat shock response in human OVCAR-8 cells assessed as increase in HSP90 level at 100 nM incubated for 24 hrs by Western blot analysis. The data set is classed as functional, cell-based.
For data set [15], the target named is RAC-alpha serine/threonine-protein kinase (Homo sapiens) (UniProt P31749). Description: Induction of AKT degradation in human OVCAR-8 cells incubated for 24 hrs by Western blot analysis. To be noted: dose 1-100 µM. The data set is classed as cell-based.

The term IC50 denotes the concentration at which inhibition is half-maximal. Consider `Cc1ccc(Sc2cc(C(=O)N3Cc4ccc(OCC[N+](C)(C)C)cc4C3)ccc2O)cc1C.O=C([O-])C(F)(F)F`, for which the half-inhibitory concentration (IC50) in data set [1] was 650 nM; in data set [2], > 100 µM; at Endoplasmin, > 100 µM; in the data set on OVCAR-8 [4], > 100 µM; in data set [5], > 100 µM. The IC50 at 72 h in data set [3] is > 100 µM. For the same molecule, the Papp at 5 h in [6] is 0.775 ×10⁻⁶ cm/s.

Take `Cc1ccc(Sc2cc(C(=O)N3Cc4ccc(OCCN(C)C)cc4C3)ccc2O)cc1C`: the IC50 was 850 nM in [1]; 96.1 µM in data set [2]; > 100 µM on Endoplasmin; 13.5 µM in the data set with OVCAR-8 [4]; > 100 µM in data set [5]. The IC50 at 72 h in [3] worked out at 11.5 µM.

In the case of `Cc1ccc(Sc2cc(C(=O)N3Cc4ccc(OCC[N+](C)(C)[O-])cc4C3)ccc2O)cc1C`, the IC50 was > 100000 nM in [1] and > 100 µM in [2].

Take `Cc1ccc(Sc2cc(C(=O)N3Cc4ccc(OCCC[N+](C)(C)C)cc4C3)ccc2O)cc1C.O=C([O-])C(F)(F)F`: the IC50 was 340 nM in data set [1]; > 100 µM in data set [2]; > 100 µM at Endoplasmin; > 100 µM in the data set with OVCAR-8 [4]; > 100 µM in [5]. Besides, in data set [3], the IC50 at 72 h was > 100 µM. The result (with OVCAR-8 [7]; in data set [11]) was inactive. Further, the inhibition result in data set [8] is “Dose-Dependent Effect”. The result in the data set on OVCAR-8 [9], with OVCAR-8 [10] and in the data set with OVCAR-8 [12] was Active. Moreover, the outcome on Heat shock protein HSP90 was Active. Further, the Papp at 5 h in [6] was 0.644 ×10⁻⁶ cm/s.

Turning to `Cc1ccc(Sc2cc(C(=O)N3Cc4ccc(OCC[N+](C)(C)Cc5ccccc5)cc4C3)ccc2O)cc1C`, the IC50 is 960 nM in data set [1] and > 100 µM in data set [2]. Further, the Ratio IC50 in [13] was > 104.

As to `Cc1ccc(Sc2cc(C(=O)N3Cc4ccc(OCCCCN(C)C)cc4C3)ccc2O)cc1C`, the half-inhibitory concentration (IC50) in data set [1] was 790 nM; in data set [2], > 100 µM. For the same molecule, the Ratio IC50 in data set [13] is > 126.

Regarding `Cc1ccc(Sc2cc(C(=O)N3Cc4ccc(OCCC[N+](C)(C)Cc5ccccc5)cc4C3)ccc2O)cc1C.O=C([O-])C(F)(F)F`, the 50% inhibitory concentration (IC50) was 960 nM in data set [1] and > 100 µM in data set [2]. Besides, the Ratio IC50 in [13] is > 104. In addition, the Papp at 5 h in data set [6] turned out to be 3.74 ×10⁻⁶ cm/s.

For `Cc1ccc(Sc2cc(C(=O)N3Cc4ccc(OCCCC[N+](C)(C)C)cc4C3)ccc2O)cc1C`, the half-maximal inhibitory concentration (IC50) is 7360 nM in [1] and > 100 µM in data set [2]. Besides, the Ratio IC50 in [13] is > 13.

For the molecule `Cn1c(=O)c2c(ncn2C)n(C)c1=O` [CAFFEINE], in data set [6], the Papp at 5 h came to 17.3 ×10⁻⁶ cm/s.

As to `CCNC(=O)c1noc(-c2cc(C(C)C)c(O)cc2O)c1-c1ccc(CN2CCOCC2)cc1`, the result in the data set with OVCAR-8 [14] was Active.

In the case of `Cc1ccc(Sc2cc(C(=O)N3Cc4ccc(OCCCN(C)C)cc4C3)ccc2O)cc1C`, the half-maximal inhibitory concentration (IC50) in [1] was 510 nM; in data set [2] it was > 100 µM; on Endoplasmin, > 100 µM; in the data set with OVCAR-8 [4], 12.7 µM; in [5], > 100 µM. Further, the Activity result in data set [15] is “Dose-Dependent Effect”. The half-maximal inhibitory concentration (IC50) at 72 h in data set [3] is 11.7 µM. Further, in the data set on OVCAR-8 [7], the result was Active. The Papp at 5 h in data set [6] came to 2.99 ×10⁻⁶ cm/s.

Regarding `CC[N+](C)(C)CCCCOc1ccc2c(c1)CN(C(=O)c1ccc(O)c(Sc3ccc(C)c(C)c3)c1)C2`, the IC50 is 7940 nM in [1] and > 100 µM in data set [2]. Also, the Ratio IC50 in data set [13] is > 12.

Consider `CC[N+](C)(C)CCCOc1ccc2c(c1)CN(C(=O)c1ccc(O)c(Sc3ccc(C)c(C)c3)c1)C2.O=C([O-])C(F)(F)F`, for which the IC50 in data set [1] is > 100000 nM; in [2], > 100 µM. Further, the Papp at 5 h in [6] stood at 1.05 ×10⁻⁶ cm/s.

As to `CC[N+](C)(C)CCOc1ccc2c(c1)CN(C(=O)c1ccc(O)c(Sc3ccc(C)c(C)c3)c1)C2`, the IC50 in data set [1] was found to be 360 nM; in data set [2], 8.39 µM. Besides, the Ratio IC50 in [13] was > 12.

Take `Cc1ccc(Sc2cc(C(=O)N3Cc4ccc(OCCC[N+](C)(C)[O-])cc4C3)ccc2O)cc1C`: the results for the half-maximal inhibitory concentration (IC50) in data set [1] and in [2] were 43100 nM and > 100 µM, respectively. Further, the Ratio IC50 in data set [13] was > 2.

Regarding `Cc1ccc(Sc2cc(C(=O)N3Cc4ccc(OCCCC[N+](C)(C)[O-])cc4C3)ccc2O)cc1C`, the 50% inhibitory concentration (IC50) in [1] was 90300 nM; in data set [2], > 100 µM.
